Read-outs that look alike come from different tables or passages of the source.

Data on eleven molecules can be found in patent US4336257A, “Novel 2-pyridylbenzimidazole compounds” (Merck & Co., Inc., priority 1980, dated 1982).

In assay [1] the target is T1, xanthine oxidase (Bos taurus, UniProt P80457). Kind of assay: in vitro xanthine oxidase (X.O.) inhibition. The assay is classed as biochemical. How it is done:
The xanthine oxidase activity of representative compounds was determined using an in vitro test--the antihypertensive activity was determined by administration of said compounds to a spontaneously hypertensive (SH) or renal hypertensive (RH) rat. The X.O. inhibition is expressed as % inhibition of the enzyme at a present compound concentration of 2×10^-5 M. | .circle.* using in vitro test as described in J. Med. Chem. 20,

The test system of assay [2] is spontaneously hypertensive (SH) rat. Kind of assay: antihypertensive activity in spontaneously hypertensive (SH) rat. The assay is classed as in vivo. The following applies: SH rat (footnote 1). How it is done: (§1) The xanthine oxidase activity of representative compounds was determined using an in vitro test--the antihypertensive activity was determined by administration of said compounds to a spontaneously hypertensive (SH) or renal hypertensive (RH) rat. The X.O. inhibition is expressed as % inhibition of the enzyme at a present compound concentration of 2×10^-5 M.

Assay [3] has as its system spontaneously hypertensive (SH) or renal hypertensive (RH) rat. The assay can be described thus: antihypertensive activity in spontaneously hypertensive (SH) or renal hypertensive (RH) rat, model not specified. The assay is classed as in vivo. The following applies: model not marked. As for the experimental part: as §1
Assay [4] relates to renal hypertensive (RH) rat. Kind of assay: antihypertensive activity in renal hypertensive (RH) rat. The assay is classed as in vivo. The following applies: RH rat (footnote 2). How it is done:
as §1

Assay [5] addresses T1, xanthine oxidase. The assay can be described thus: in vitro xanthine oxidase (X.O.) inhibition. The assay is classed as biochemical. The following applies: Table 2; amount 1.5 × 10^-5 m; read-out: X.O.I.
Where [6] appears, read: Table 1, compound concentration 2×10^-5 M, read-out: % X.O. Inhibition.
[7] abbreviates: Table 2, amount 2 × 10^-5 M, read-out: X.O.I.

T1 sequence (P80457 whole entry): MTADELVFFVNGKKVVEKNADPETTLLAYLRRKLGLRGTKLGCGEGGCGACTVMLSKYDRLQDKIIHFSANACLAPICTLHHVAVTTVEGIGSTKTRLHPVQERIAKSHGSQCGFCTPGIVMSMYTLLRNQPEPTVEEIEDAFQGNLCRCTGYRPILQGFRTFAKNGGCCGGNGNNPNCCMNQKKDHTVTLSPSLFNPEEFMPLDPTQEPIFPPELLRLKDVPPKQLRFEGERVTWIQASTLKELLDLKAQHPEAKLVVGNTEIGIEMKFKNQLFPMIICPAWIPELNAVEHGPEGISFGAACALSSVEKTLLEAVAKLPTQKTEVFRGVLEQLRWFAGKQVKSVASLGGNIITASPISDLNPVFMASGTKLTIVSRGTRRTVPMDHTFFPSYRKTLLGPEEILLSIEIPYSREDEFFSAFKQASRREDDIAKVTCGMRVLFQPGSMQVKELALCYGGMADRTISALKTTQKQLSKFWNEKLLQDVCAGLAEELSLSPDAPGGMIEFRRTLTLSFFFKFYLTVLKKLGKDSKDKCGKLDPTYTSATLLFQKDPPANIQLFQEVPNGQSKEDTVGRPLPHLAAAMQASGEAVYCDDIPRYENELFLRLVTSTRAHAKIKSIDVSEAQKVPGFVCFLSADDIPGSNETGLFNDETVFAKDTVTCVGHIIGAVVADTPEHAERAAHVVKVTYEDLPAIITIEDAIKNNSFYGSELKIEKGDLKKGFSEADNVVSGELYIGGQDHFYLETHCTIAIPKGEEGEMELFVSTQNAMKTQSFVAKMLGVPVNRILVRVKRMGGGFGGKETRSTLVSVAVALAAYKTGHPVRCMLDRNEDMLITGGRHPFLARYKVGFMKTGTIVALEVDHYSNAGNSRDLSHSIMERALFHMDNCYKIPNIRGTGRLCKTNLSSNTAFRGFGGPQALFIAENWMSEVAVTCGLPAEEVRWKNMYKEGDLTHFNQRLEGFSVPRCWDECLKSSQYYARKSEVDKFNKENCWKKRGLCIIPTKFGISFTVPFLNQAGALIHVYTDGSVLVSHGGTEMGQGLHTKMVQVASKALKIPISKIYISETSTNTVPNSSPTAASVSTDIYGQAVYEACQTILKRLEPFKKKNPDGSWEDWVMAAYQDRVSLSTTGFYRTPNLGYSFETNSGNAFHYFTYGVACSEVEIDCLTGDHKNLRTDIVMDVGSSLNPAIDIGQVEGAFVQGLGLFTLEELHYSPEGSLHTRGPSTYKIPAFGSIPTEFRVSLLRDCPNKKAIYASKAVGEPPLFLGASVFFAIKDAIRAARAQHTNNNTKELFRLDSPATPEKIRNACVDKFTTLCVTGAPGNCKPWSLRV

Turning to `Cc1cnc(-c2ccncc2)[nH]1`, at xanthine oxidase [1] (setting [6]), the inhibition at 20 µM was 4%. For the same molecule, the “A.H. Activity” value in assay [2] is given as “yes”. For `Cc1cnc(-c2cccnc2)[nH]1`, the inhibition at 20 µM on xanthine oxidase [1] (setting [6]) is 0%. Further, the “A.H. Activity” value in assay [2] is given as “yes”. For `c1cnc2[nH]c(-c3ccncc3)nc2c1`, in that order: 8% and “yes”. Regarding `c1cncc(-c2nc3cccnc3[nH]2)c1`, the inhibition at 20 µM on xanthine oxidase [1] (setting [6]) amounted to 5%. Moreover, the “A.H. Activity” value in assay [2] is given as “yes”. For `c1cc(-c2nc3cnccc3[nH]2)ccn1`, in that order: 62% and “yes”. Regarding `c1cncc(-c2nc3cnccc3[nH]2)c1`, at xanthine oxidase [1] (setting [6]), the inhibition at 20 µM is 23%. The “A.H. Activity” value in assay [3] is “no”. Take `Clc1ccc2[nH]c(-c3cccnc3)nc2c1`: the inhibition at 20 µM on xanthine oxidase [1] (setting [7]) came out at 0%.

As for `Clc1ccc2[nH]c(-c3ccncc3)nc2c1` [drawing 6], the inhibition at 20 µM at xanthine oxidase [1] (setting [6]) was 11%. Further, the “A.H. Activity” value in assay [4] is “yes”. For the molecule `Clc1cc2nc(-c3ccncc3)[nH]c2cc1Cl` [drawing 7], the inhibition at 20 µM at xanthine oxidase [1] (setting [6]) is 56%. The “A.H. Activity” value in assay [3] is listed as “no”. In the case of `Clc1ccc2[nH]c(-c3ccncc3)nc2c1` [drawing 13], the inhibition at 20 µM at xanthine oxidase [1] (setting [7]) was 11%. With `Clc1cc2nc(-c3ccncc3)[nH]c2cc1Cl` [drawing 14], the inhibition at 15 µM on xanthine oxidase [5] came to 50%.
